Laboratory results from patent US11883680B2, “Method and apparatus for tightening skin and other tissues” (The General Hospital Corporation, priority 2016, dated 2024).

Tested on: human skin
Experiment: mechanical testing of skin sample sites with a tensiometer (elastic modulus, peak load)
Settings: fully treated (full thickness needling + 0.1% Rose Bengal in saline + green light LED array) vs untreated and needled-only skin
Description: Additionally, mechanical testing was performed on sample sites using a tensiometer to measure elastic modulus before and after treatment. The elastic modulus and peak load were recorded on samples that were (1) untreated (2) partially treated (needled only), and (3) fully treated (needled plus agent application and irradiation). Full treatment included full thickness needling of the skin surface followed by application of a 0.1% solution of Rose Bengal in saline and irradiation with a multi-light-emitting LED diode array that delivered green light to the sample surface.

O=C([O-])c1c(Cl)c(Cl)c(Cl)c(Cl)c1-c1c2cc(I)c(=O)c(I)c-2oc2c(I)c([O-])c(I)cc12.[Na+].[Na+] [Rose Bengal]
increase in peak load: three-fold
increase in the elastic modulus: five-fold
